Target: T1, human complement factor D (Homo sapiens, UniProt P00746)
T1 construct: purchased R&D Systems 1824-SE
Assay: In vitro enzyme inhibition of human complement factor D (Z-Lys-SBzl/DTNB, A405)
Type: biochemical
Conditions: biochemical assay, substrate Z-Lys-SBzl; read-out: CFD IC50
Summary of the method: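 Buffer 50 mM Tris/HCl pH 7.5, 1 M NaCl, 0.5% final DMSO; compounds pre-incubated with enzyme 5 min at room temperature, then Z-Lys-SBzl with DTNB added (each diluted to 200 μM before addition).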

T1 sequence (P00746 26-253): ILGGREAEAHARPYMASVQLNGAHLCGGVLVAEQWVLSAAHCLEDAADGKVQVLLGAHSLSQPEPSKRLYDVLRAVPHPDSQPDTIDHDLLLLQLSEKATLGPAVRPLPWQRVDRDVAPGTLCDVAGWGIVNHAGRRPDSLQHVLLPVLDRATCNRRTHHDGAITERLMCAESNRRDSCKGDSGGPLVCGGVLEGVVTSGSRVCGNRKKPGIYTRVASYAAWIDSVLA

| Structure (SMILES) | IC50 [nM] |
| --- | --- |
| NC(=O)c1nn(CC(=O)N(CC(=O)NCc2cc(Cl)c3cn[nH]c3c2)C2CC2)c2ccccc12 [Example 102, 1-(2-((2-(((4-chloro-1H-indazol-6-yl)methyl)amino)-2-oxoethyl)(cyclopropyl)amino)-2-oxoethyl)-1H-indazole-3-carboxamide] | 1000 to 10000 |
| N#Cc1cccc2c(C(N)=O)nn(CC(=O)N(CC(=O)NCc3cccc(Cl)c3F)C3CC3)c12 [Example 105, 1-(2-((2-((3-chloro-2-fluorobenzyl)amino)-2-oxoethyl)(cyclopropyl)amino)-2-oxoethyl)-7-cyano-1H-indazole-3-carboxamide] | 1000 to 10000 |
| NC(=O)c1nn(CC(=O)N(CC(=O)NCc2cc(Cl)cc3cn[nH]c23)C2CC2)c2ccccc12 [Example 109, 1-(2-((2-(((5-chloro-1H-indazol-7-yl)methyl)amino)-2-oxoethyl)(cyclopropyl)amino)-2-oxoethyl)-1H-indazole-3-carboxamide] | 1000 to 10000 |
| NC(=O)c1nn(CC(=O)N(CC(=O)NCc2cc(Cl)cc3ccoc23)C2CC2)c2ccccc12 [Example 110, 1-(2-((2-(((5-chlorobenzofuran-7-yl)methyl)amino)-2-oxoethyl)(cyclopropyl)amino)-2-oxoethyl)-1H-indazole-3-carboxamide] | 100 to 1000 |
| NC(=O)c1nn(CC(=O)N(CC(=O)NCc2cccc(Cl)c2F)C2CC2)c2c(C(F)(F)F)cccc12 [Example 111, 1-(2-((2-((3-chloro-2-fluorobenzyl)amino)-2-oxoethyl)(cyclopropyl)amino)-2-oxoethyl)-7-(trifluoromethyl)-1H-indazole-3-carboxamide] | < 100 |
| NC(=O)c1nn(CC(=O)N(CC(=O)NCc2cc(Cl)c3[nH]ncc3c2)C2CC2)c2ccccc12 [Example 114, 1-(2-((2-(((7-chloro-1H-indazol-5-yl)methyl)amino)-2-oxoethyl)(cyclopropyl)amino)-2-oxoethyl)-1H-indazole-3-carboxamide] | 1000 to 10000 |

Continued, values first:

| IC50 [nM] | Structure (SMILES) |
| --- | --- |
| 100 to 1000 | NC(=O)c1nn(CC(=O)N(CC(=O)NCc2cc(F)cc(Cl)c2)C2CC2)c2ccccc12 [Example 103, 1-(2-((2-((3-chloro-5-fluorobenzyl)amino)-2-oxoethyl)(cyclopropyl)amino)-2-oxoethyl)-1H-indazole-3-carboxamide] |
| 1000 to 10000 | NC(=O)c1nn(CC(=O)N(CC(=O)NCc2ccc(Cl)c(Cl)c2)C2CC2)c2ccccc12 [Example 104, 1-(2-(cyclopropyl(2-((3,4-dichlorobenzyl)amino)-2-oxoethyl)amino)-2-oxoethyl)-1H-indazole-3-carboxamide] |
| 100 to 1000 | NC(=O)c1nn(CC(=O)N(CC(=O)NCc2cccc(Cl)c2Cl)C2CC2)c2ccccc12 [Example 106, 1-(2-(cyclopropyl(2-((2,3-dichlorobenzyl)amino)-2-oxoethyl)amino)-2-oxoethyl)-1H-indazole-3-carboxamide] |
| 1000 to 10000 | NC(=O)c1nn(CC(=O)N(CC(=O)NCc2cccc(Cl)n2)C2CC2)c2ccccc12 [Example 107, 1-(2-((2-(((6-chloropyridin-2-yl)methyl)amino)-2-oxoethyl)(cyclopropyl)amino)-2-oxoethyl)-1H-indazole-3-carboxamide] |
| 1000 to 10000 | NC(=O)c1nn(CC(=O)N(CC(=O)NCc2ccc(F)c(Cl)c2)C2CC2)c2ccccc12 [Example 108, 1-(2-((2-((3-chloro-4-fluorobenzyl)amino)-2-oxoethyl)(cyclopropyl)amino)-2-oxoethyl)-1H-indazole-3-carboxamide] |
| 100 to 1000 | NC(=O)c1nn(CC(=O)N(CC(=O)NCc2cccc(Cl)c2)C2CC2)c2ccccc12 [Example 112, 1-(2-((2-((3-chlorobenzyl)amino)-2-oxoethyl)(cyclopropyl)amino)-2-oxoethyl)-1H-indazole-3-carboxamide] |
| 1000 to 10000 | Cc1ccc(CNC(=O)CN(C(=O)Cn2nc(C(N)=O)c3ccccc32)C2CC2)cc1Cl [Example 113, 1-(2-((2-((3-chloro-4-methylbenzyl)amino)-2-oxoethyl)(cyclopropyl)amino)-2-oxoethyl)-1H-indazole-3-carboxamide] |
